Consider three compounds from patent US11065231B2, “Compounds and methods for the targeted degradation of interleukin-1 receptor- associated kinase 4 polypeptides” (Arvinas Operations, Inc., priority 2017, dated 2021).

Some results are limits rather than exact numbers.

Assay [1] deals with T1, IRAK1 (Homo sapiens (Human), UniProt P51617). In words: Western blot assay for degradation of IRAK1 in MCF7 cells. The format is cell-based.
The target of assay [2] is T2, IRAK4 (Homo sapiens (Human), UniProt Q9NWZ3). In words: Biochemical Z'-Lyte FRET assay for IRAK4 kinase inhibition. To be noted: 2 nM enzyme, 1 mM ATP, 2 μM substrate. The method in brief: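 Z′-Lyte FRET phosphorylation of Ser/Thr 7 peptide (2 µM) by 2 nM recombinant IRAK4 at 1 mM ATP in HEPES pH 7.5 with MgCl2/MnCl2, after 10 min enzyme–compound preincubation; 1 h at room temperature, then 1 h development, 460/530 nm emission. Duplicate 12-point, 3-fold curves from 30 µM; IC50 from percent inhibition against ±100% controls.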

For assay [3], the target named is T2, IRAK4. In words: Western blot assay for assessing degradation of IRAK4 in MCF7 cells. The format is cell-based. The method in brief: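 MCF7 cells were treated 24 h with serially diluted compound (0.1% DMSO final), then lysed in RIPA. IRAK4 and IRAK1 levels were measured by western blot with β-actin probed alongside. Percent degradation compared compound-treated with DMSO-treated lysates.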
A general note: Immunoblotting shows a protein as a band on a membrane.

For assay [4], the target named is T2, IRAK4. In words: ELISA assay for IRAK4 degradation in MCF7 cells. To be noted: Table 1, 24 hours. The format is cell-based. The protocol: Enzyme-Linked Immunosorbent Assay (ELISA) Assay for IRAK4 Degradation.
MCF7 cells, purchased from ATCC (Manassas, Va.), were used at a passage range of 2-19. Cells were prepared and treated with compounds for 24 hours, exactly as described above for the Western blots. The ELISA assay was performed using the kit and instructions described by Abcam (cat. #: ab213472, Abcam Biotechnology, Cambridge, Mass.). Table 1 below provides and compares the ELISA IRAK4 degradation data to the western blot IRAK 4 degradation data for Examples 2, 3, 4, and 5. Furthermore, FIG. 5 is a graph illustrating the ELISA IRAK4 degradation data.

Assay [5] concerns the target T1, IRAK1. In words: Western blots of IRAK1 protein degradation. The format is cell-based.
The target of assay [6] is T2, IRAK4. The assay is described as follows: Western blots of IRAK4 protein degradation. The format is cell-based. To be noted: from western blots.
Where [7] appears, read: Table 5, IRAK4 degradation, 24 hour incubation, read-out: IRAK4 Dmax (%).
Where [8] appears, read: western blot, 24 hour incubation, read-out: Dmax (IRAK4 degradation).

T1 sequence (P51617 whole entry): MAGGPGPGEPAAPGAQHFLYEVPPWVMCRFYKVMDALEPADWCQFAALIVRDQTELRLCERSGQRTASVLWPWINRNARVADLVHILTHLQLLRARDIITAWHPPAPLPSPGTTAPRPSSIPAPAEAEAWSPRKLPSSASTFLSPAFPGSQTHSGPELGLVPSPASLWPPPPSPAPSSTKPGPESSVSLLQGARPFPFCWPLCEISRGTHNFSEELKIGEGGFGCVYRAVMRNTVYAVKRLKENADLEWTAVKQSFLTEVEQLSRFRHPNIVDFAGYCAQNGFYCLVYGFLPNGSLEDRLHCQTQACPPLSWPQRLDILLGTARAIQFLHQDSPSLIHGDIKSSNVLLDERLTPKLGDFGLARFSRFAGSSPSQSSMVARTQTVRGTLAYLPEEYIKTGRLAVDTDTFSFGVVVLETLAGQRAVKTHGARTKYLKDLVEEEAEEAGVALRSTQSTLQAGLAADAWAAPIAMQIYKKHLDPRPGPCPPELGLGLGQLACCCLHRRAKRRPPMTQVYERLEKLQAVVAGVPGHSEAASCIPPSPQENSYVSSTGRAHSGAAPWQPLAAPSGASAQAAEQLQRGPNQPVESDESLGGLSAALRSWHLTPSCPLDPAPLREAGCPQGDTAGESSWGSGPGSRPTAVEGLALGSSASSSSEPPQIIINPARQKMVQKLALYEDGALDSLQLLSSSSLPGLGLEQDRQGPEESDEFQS
T2 sequence (Q9NWZ3 whole entry): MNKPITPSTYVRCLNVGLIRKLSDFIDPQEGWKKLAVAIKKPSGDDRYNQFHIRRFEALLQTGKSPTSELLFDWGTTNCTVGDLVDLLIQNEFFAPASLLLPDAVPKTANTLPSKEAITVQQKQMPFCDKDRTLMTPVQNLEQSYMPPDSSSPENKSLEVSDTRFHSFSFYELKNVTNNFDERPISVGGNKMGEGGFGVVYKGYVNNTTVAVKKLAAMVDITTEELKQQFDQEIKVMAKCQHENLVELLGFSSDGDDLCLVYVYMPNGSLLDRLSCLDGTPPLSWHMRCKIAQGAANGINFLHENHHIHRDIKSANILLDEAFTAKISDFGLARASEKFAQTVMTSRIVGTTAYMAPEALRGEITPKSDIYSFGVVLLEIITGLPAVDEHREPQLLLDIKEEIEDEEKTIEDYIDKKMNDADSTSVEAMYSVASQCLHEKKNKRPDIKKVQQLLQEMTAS

Take `O=C1CCC(N2C(=O)c3ccc(OCCOCCOCCN4CCN(Cc5ccc6c(c5)nc(NC(=O)c5cccc(C(F)(F)F)c5)n6[C@H]5CC[C@@H](CO)CC5)CC4)cc3C2=O)C(=O)N1` (some centres unmarked) [compound 3, N-(5-((4-(2-(2-(2-((2-(2,6-dioxopiperidin-3-yl)-1,3-dioxoisoindolin-5-yl)oxy)ethoxy)ethoxy)ethyl)piperazin-1-yl)methyl)-1-((1s,4s)-4-(hydroxymethyl)cyclohexyl)-1H-benzo[d]imidazol-2-yl)-3-(trifluoromethyl)benzamide]: in assay [1], the IRAK1 protein degradation entry is given as “no significant degradation was observed”. For the same compound, the concentration for half-maximal inhibition (IC50) – broadly, the point on the concentration scale where inhibition reaches its midpoint – in assay [2] was under 30 nM. In assay [3] (Table 1, 24 hours), the “IRAK4 by western % degraded” value is reported as 80%. The 50% degradation concentration (DC50) (in general, the concentration giving 50% degradation) is 23 nM in assay [3] (Table 1, 24 hours, read-out: IRAK4 by western DC50); under 30 nM in assay [3] (Table 5, IRAK4 degradation, 24 hour incubation, read-out: IRAK4 DC50); 23 nM in assay [3] (western blot, 24 hour incubation, read-out: DC50 (IRAK4 degradation)). Moreover, the Dmax (usually the largest share of the target that was removed) was over 70% in assay [3] (setting [7]) and 80% in assay [3] (setting [8]). Further, in assay [4], the “IRAK4 by ELISA % degraded” value amounted to 86%.
As to `O=C1CCC(N2C(=O)c3ccc(OCCOCCN4CCN(Cc5ccc6c(c5)nc(NC(=O)c5cccc(C(F)(F)F)c5)n6C5CCC(CO)CC5)CC4)cc3C2=O)C(=O)N1` (centres unmarked) [compound 2, N-(5-((4-(2-(2-((2-(2,6-dioxopiperidin-3-yl)-1,3-dioxoisoindolin-5-yl)oxy)ethoxy)ethyl)piperazin-1-yl)methyl)-1-((1s,4s)-4-(hydroxymethyl)cyclohexyl)-1H-benzo[d]imidazol-2-yl)-3-(trifluoromethyl)benzamide], the IRAK1 protein degradation result in assay [1] was “no significant degradation was observed”. Besides, the “IRAK4 by western % degraded” value in assay [3] (Table 1, 24 hours) is reported as 71%. The Dmax is 50 to 70% in assay [3] (setting [7]) and 71% in assay [3] (setting [8]). For the same compound, the “IRAK4 by ELISA % degraded” value in assay [4] is reported as 76%.
As for `O=C1CCC(N2C(=O)c3ccc(OCCOCCN4CCN(Cc5ccc6c(c5)nc(NC(=O)c5cccc(C(F)(F)F)c5)n6C5CCC(CO)CC5)CC4)cc3C2=O)C(=O)N1` (centres unmarked) [Exemplary Compound 2, N-(5-((4-(2-(2-((2-(2,6-dioxopiperidin-3-yl)-1,3-dioxoisoindolin-5-yl)oxy)ethoxy)ethyl)piperazin-1-yl)methyl)-1-((1s,4s)-4-(hydroxymethyl)cyclohexyl)-1H-benzo[d]imidazol-2-yl)-3-(trifluoromethyl)benzamide], the “degradation of IRAK1” value in assay [5] is given as “no significant degradation was observed”. In assay [6], this compound came in with a DC50 of 9.7 nM and a Dmax of 71%.
